# Data as given in ChEMBL document CHEMBL5620384, “6-Regioisomeric 5,8-quinolinediones as potent CDC25 inhibitors against colorectal cancers” (Eur J Med Chem, 2023).
# Active and inactive are the calls of the source. No cut-off for these calls is given here.
# Experiments:
# HCT-116 [1] = assay: Cytotoxicity against human HCT-116 cells assessed as cell survival measured at 2 uM after 72 hrs by MTS assay relative to control; format: functional; settings: read-out: Activity
# SW480 = assay: Cytotoxicity against human SW480 cells assessed as cell survival measured at 2 uM after 72 hrs by MTS assay relative to control; format: functional; settings: read-out: Activity
# U-87 MG = assay: Cytotoxicity against human U-87 MG cells assessed as cell survival measured at 2 uM after 72 hrs by MTS assay relative to control; format: functional, U-87MG ATCC; settings: read-out: Activity
# DLD-1 [2] = assay: Cytotoxicity against human DLD-1 cells assessed as cell survival measured at 2 uM after 72 hrs by MTS assay relative to control; format: functional; settings: read-out: Activity
# MDA-MB-231 [3] = assay: Cytotoxicity against human MDA-MB-231 cells assessed as cell survival measured at 2 uM after 72 hrs by MTS assay relative to control; format: functional; settings: read-out: Activity
# MCF7 = assay: Cytotoxicity against human MCF7 cells assessed as cell survival measured at 2 uM after 72 hrs by MTS assay relative to control; format: functional; settings: read-out: Activity
# HCT-116 [4] = assay: Induction of DNA damaging in human HCT-116 cells assessed as CDK1Y15 dephosphorylation at 2 uM measured upto 8 hrs by Western blot analysis; format: functional, cell-based
# [5] = Cytotoxicity against human MRC5 cells assessed as growth inhibition after 72 hrs by MTS assay; format: toxicity, cell-based
# HCT-116 [6] = assay: Induction of apoptosis in human HCT-116 cells assessed as increase in caspase 8 at 1 uM measured after 72 hrs by flow cytometry; format: functional, cell-based
# HCT-116 [7] = assay: Effect on cell cycle progression in thymidine synchronized human HCT-116 cells assessed as prevention of cells entering from mitosis in presence of colchicine at 2 uM by Western blot analysis; format: functional, cell-based
# HCT-116 [8] = assay: Induction of cell cycle arrest in human HCT-116 cells assessed as cells accumulation at S to G2 phase (T6-T8) at 2 uM measured upto 24 hrs by flow cytometry; format: functional, cell-based
# [9] = Cytotoxicity against human HEL 299 cells assessed as growth inhibition after 72 hrs by MTS assay; format: toxicity, cell-based
# HCT-116 [10] = assay: Suppression of histone H4 methylation at K20 (H4K20me1) in thymidine synchronized human HCT-116 cells at 2 uM measured upto 8 hrs by Western blot analysis; format: functional, cell-based
# [11] = Cytotoxicity against human M10 cells assessed as growth inhibition after 72 hrs by MTS assay; format: toxicity, cell-based
# HCT-116 [12] = assay: Induction of cell cycle arrest in human HCT-116 cells assessed as cells accumulation at G2/M phase (T10-T24) at 2 uM measured upto 24 hrs by flow cytometry; format: functional, cell-based
# HCT-116 [13] = assay: Induction of DNA damaging in human HCT-116 cells assessed as CHK2 phosphorylation at T68 at 2 uM measured upto 8 hrs by Western blot analysis; format: functional, cell-based
# HCT-116 [14] = assay: Induction of apoptosis in human HCT-116 cells assessed as reduction in number of cells at G1 phase at 1 uM measured after 72 hrs by flow cytometry; format: functional, cell-based
# HCT-116 [15] = assay: Induction of apoptosis in human HCT-116 cells assessed as increase in caspase 3 at 1 uM measured after 72 hrs by flow cytometry; format: functional, cell-based
# [16] = Cytotoxicity against human CCD-841CoN cells assessed as growth inhibition after 72 hrs by MTS assay; format: toxicity, cell-based
# HCT-116 [17] = assay: Induction of DNA damaging in human HCT-116 cells assessed as CHK1 phosphorylation at S345 at 2 uM measured upto 8 hrs by Western blot analysis; format: functional, cell-based
# HCT-116 [18] = assay: Induction of DNA damaging in human HCT-116 cells assessed as KAP-1 phosphorylation at S824 at 2 uM measured upto 8 hrs by Western blot analysis; format: functional, cell-based
# HCT-116 [19] = assay: Induction of apoptosis in human HCT-116 cells assessed as increase in number of cells at sub-G1 phase measured after 72 hrs by flow cytometry; format: functional, cell-based; settings: dose 1-4 µM
# HCT-116 [20] = assay: Induction of apoptosis in human HCT-116 cells assessed as increase in caspase 9 at 1 uM measured after 72 hrs by flow cytometry; format: functional, cell-based
# HCT-116 [21] = assay: Induction of apoptosis in human HCT-116 cells assessed as decrease in MCL1 expression at 1 uM measured after 72 hrs by flow cytometry; format: functional, cell-based
# HCT-116 [22] = assay: Induction of DNA damaging in human HCT-116 cells assessed as H4K20 methylation at 2 uM measured upto 8 hrs by Western blot analysis; format: functional, cell-based
# HCT-116 [23] = assay: Induction of apoptosis in human HCT-116 cells assessed as reduction in number of cells at G2/M phase at 1 uM measured after 72 hrs by flow cytometry; format: functional, cell-based
# DLD-1 [24] = assay: Induction of cell cycle arrest in human DLD-1 cells assessed as reduced progression of S phase (T8) at 2 uM measured upto 24 hrs by flow cytometry; format: functional, cell-based
# MDA-MB-231 [25] = assay: Cytotoxicity against human MDA-MB-231 cells assessed as growth inhibition after 72 hrs by MTS assay; format: functional, cell-based; settings: MDA-MB-231, 72 h
# HCT-116 [26] = assay: Induction of DNA damaging in human HCT-116 cells assessed as RPA2 phosphorylation at S33 at 2 uM measured upto 8 hrs by Western blot analysis; format: functional, cell-based
# HCT-116 [27] = assay: Induction of apoptosis in human HCT-116 cells assessed as reduction in number of cells at S phase at 1 uM measured after 72 hrs by flow cytometry; format: functional, cell-based
# HCT-116 [28] = assay: Induction of DNA damaging in human HCT-116 cells assessed as RPA2 phosphorylation at S4/S8 at 2 uM measured upto 8 hrs by Western blot analysis; format: functional, cell-based
# DLD-1 [29] = assay: Cytotoxicity against human DLD1 cells assessed as growth inhibition after 72 hrs by MTS assay; format: functional, cell-based; settings: DLD-1, 72 h
# HCT-116 [30] = assay: Effect on cell cycle progression in thymidine synchronized human HCT-116 cells assessed as suppression of CDK1 dephosphorylation in presence of colchicine at 2 uM by Western blot analysis; format: functional, cell-based
smiles,measurement,setting,value
O=C1C(Cl)=C(NCCCCCN2CCOCC2)C(=O)c2ncccc21,viability at 2 µM,HCT-116 [1],59.7%
same,viability at 2 µM,SW480,98.1%
same,viability at 2 µM,U-87 MG,79.6%
same,viability at 2 µM,DLD-1 [2],78.9%
same,viability at 2 µM,MDA-MB-231 [3],85.9%
same,viability at 2 µM,MCF7,84.7%
O=C1C(Cl)=C(NCCCN2CCOCC2)C(=O)c2ncccc21,viability at 2 µM,HCT-116 [1],56.3%
same,viability at 2 µM,SW480,105%
same,viability at 2 µM,U-87 MG,76.8%
same,viability at 2 µM,DLD-1 [2],67.7%
same,viability at 2 µM,MDA-MB-231 [3],87.8%
same,viability at 2 µM,MCF7,95.1%
O=C1C(Cl)=C(NCCN2CCOCC2)C(=O)c2cc(I)ccc21,viability at 2 µM,HCT-116 [1],82.4%
same,viability at 2 µM,SW480,84.3%
same,viability at 2 µM,U-87 MG,59.3%
same,viability at 2 µM,DLD-1 [2],1.7%
same,viability at 2 µM,MDA-MB-231 [3],81.1%
same,viability at 2 µM,MCF7,102%
O=C1C(NCCN2CCOCC2)=C(Cl)C(=O)c2ncccc21,Activity,HCT-116 [4],Active
same,IC50 at 72 h,[5],> 2 µM
same,Activity,HCT-116 [6],Active
same,Activity,HCT-116 [7],Active
same,Activity,HCT-116 [8],Active
same,viability at 2 µM,HCT-116 [1],0.85%
same,viability at 2 µM,SW480,16.7%
same,IC50 at 72 h,[9],> 2 µM
same,Activity,HCT-116 [10],Active
same,IC50 at 72 h,[11],> 2 µM
same,Activity,HCT-116 [12],Active
same,Activity,HCT-116 [13],Active
same,Activity,HCT-116 [14],Active
same,Activity,HCT-116 [15],Active
same,viability at 2 µM,U-87 MG,28%
same,IC50 at 72 h,[16],> 2 µM
same,Activity,HCT-116 [17],Active
same,Activity,HCT-116 [18],Active
same,Activity,HCT-116 [19],Dose-Dependent Effect
same,Activity,HCT-116 [20],Active
same,viability at 2 µM,DLD-1 [2],1.86%
same,Activity,HCT-116 [21],Active
same,Activity,HCT-116 [22],Active
same,Activity,HCT-116 [23],Active
same,Activity,DLD-1 [24],Active
same,viability at 2 µM,MDA-MB-231 [3],93.2%
same,IC50,MDA-MB-231 [25],0.44 µM
same,Activity,HCT-116 [26],Active
same,Activity,HCT-116 [27],Active
same,Activity,HCT-116 [28],Active
same,IC50,DLD-1 [29],0.59 µM
same,Activity,HCT-116 [30],Active
same,viability at 2 µM,MCF7,36.3%
O=C1C(Cl)=C(NCCN2CCOCC2)C(=O)c2ccc([N+](=O)[O-])cc21,viability at 2 µM,HCT-116 [1],99.7%
same,viability at 2 µM,SW480,94.2%
same,viability at 2 µM,U-87 MG,106%
same,viability at 2 µM,DLD-1 [2],97.8%
same,viability at 2 µM,MDA-MB-231 [3],92.9%
same,viability at 2 µM,MCF7,106%
O=C1C(Cl)=C(NCCN2CCOCC2)C(=O)c2cnccc21,viability at 2 µM,HCT-116 [1],65.1%
same,viability at 2 µM,SW480,100%
same,viability at 2 µM,U-87 MG,89.3%
same,viability at 2 µM,DLD-1 [2],75.1%
same,viability at 2 µM,MDA-MB-231 [3],85.2%
same,viability at 2 µM,MCF7,16.4%
O=C1C(Cl)=C(NCCN2CCOCC2)C(=O)c2ccc(Cl)cc21,viability at 2 µM,HCT-116 [1],93%
same,viability at 2 µM,SW480,106%
same,viability at 2 µM,U-87 MG,103%
same,viability at 2 µM,DLD-1 [2],91.5%
same,viability at 2 µM,MDA-MB-231 [3],95.9%
same,viability at 2 µM,MCF7,101%
O=C1C(Cl)=C(NCCN2CCOCC2)C(=O)c2cc(Cl)ccc21,viability at 2 µM,HCT-116 [1],86.5%
same,viability at 2 µM,SW480,105%
same,viability at 2 µM,U-87 MG,98.2%
same,viability at 2 µM,DLD-1 [2],39.3%
same,viability at 2 µM,MDA-MB-231 [3],91.3%
same,viability at 2 µM,MCF7,94%
O=C1C(Cl)=C(NCCN2CCOCC2)C(=O)c2cc(Br)ccc21,viability at 2 µM,HCT-116 [1],86.8%
same,viability at 2 µM,SW480,99.7%
same,viability at 2 µM,U-87 MG,86.8%
same,viability at 2 µM,DLD-1 [2],10.3%
same,viability at 2 µM,MDA-MB-231 [3],80.3%
same,viability at 2 µM,MCF7,105%
O=C1C(NCCCCN2CCOCC2)=C(Cl)C(=O)c2ncccc21,viability at 2 µM,HCT-116 [1],4.18%
same,viability at 2 µM,U-87 MG,105%
same,viability at 2 µM,DLD-1 [2],42.2%
same,viability at 2 µM,MDA-MB-231 [3],81.8%
same,IC50,MDA-MB-231 [25],0.68 µM
same,IC50,DLD-1 [29],1.7 µM
same,viability at 2 µM,MCF7,92.8%
O=C1C(Cl)=C(NCCN2CCOCC2)C(=O)c2c1cccc2[N+](=O)[O-],viability at 2 µM,HCT-116 [1],100%
same,viability at 2 µM,SW480,97.8%
same,viability at 2 µM,U-87 MG,105%
same,viability at 2 µM,DLD-1 [2],93.2%
same,viability at 2 µM,MDA-MB-231 [3],98.2%
same,viability at 2 µM,MCF7,109%
